Laboratory results from patent publication US4684664A, “Derivatives of β-(4-isocyano-1,2,3,4-diepoxycyclopentyl) acrylic acid” (Kureha Kagaku Kogyo Kabushiki Kaisha, priority 1984, dated 1987).
Converted amounts (≈) assume the structure as drawn.

Key:
Type in all cases: cell-based
[1] = system: Staphylococcus aureus FDA 209PJc-1; assay: Antibacterial activity, agar-dilution MIC, organism No. 1; details: Staphylococcus aureus, FDA209PJC1; Organism No. 1, bouillon-agar; read-out: Minimum Inhibitory Concentration
Summary of the method: (§1)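 Read-out is the minimum inhibitory concentration, given as μg/ml of the culture medium, obtained by agar dilution using bouillon agar.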

[2] = system: Staphylococcus aureus Terajima; assay: Antibacterial activity, agar-dilution MIC, organism No. 2; details: Staphylococcus aureus; Organism No. 2, bouillon-agar; read-out: Minimum Inhibitory Concentration
Summary of the method: as §1

[3] = system: Staphylococcus aureus MS 353; assay: Antibacterial activity, agar-dilution MIC, organism No. 3; details: Staphylococcus aureus, MS353; Organism No. 3, bouillon-agar; read-out: Minimum Inhibitory Concentration
Summary of the method: as §1

[4] = system: Streptococcus pyogenes Cook; assay: Antibacterial activity, agar-dilution MIC, organism No. 4; details: Streptococcus pyogenes; Organism No. 4, bouillon-agar; read-out: Minimum Inhibitory Concentration
Summary of the method: as §1

[5] = system: Escherichia coli NIHJ-JC-2; assay: Antibacterial activity, agar-dilution MIC, organism No. 5; details: Escherichia coli, NIHJJC2; Organism No. 5, bouillon-agar; read-out: Minimum Inhibitory Concentration
Summary of the method: as §1

[6] = system: Escherichia coli K12 C600 IAM 1264; assay: Antibacterial activity, agar-dilution MIC, organism No. 6; details: Escherichia coli, IAM1264; Organism No. 6, bouillon-agar; read-out: Minimum Inhibitory Concentration
Summary of the method: as §1

[7] = system: Klebsiella pneumoniae PCI-602; assay: Antibacterial activity, agar-dilution MIC, organism No. 7; details: Klebsiella pneumoniae, PCI602; Organism No. 7, bouillon-agar; read-out: Minimum Inhibitory Concentration
Summary of the method: as §1

[8] = system: Salmonella typhimurium IID 971; assay: Antibacterial activity, agar-dilution MIC, organism No. 8; details: Salmonella enterica; Organism No. 8, bouillon-agar; read-out: Minimum Inhibitory Concentration
Summary of the method: as §1

Salmonella typhi 901 = assay: Antibacterial activity, agar-dilution MIC, organism No. 9; details: Salmonella enterica, TYPHI, read-out: Minimum Inhibitory Concentration
Summary of the method: as §1

[9] = system: Salmonella paratyphi-A 1015; assay: Antibacterial activity, agar-dilution MIC, organism No. 10; details: Salmonella enterica, PARATYPHI, read-out: Minimum Inhibitory Concentration
Summary of the method: as §1

[10] = system: Salmonella shottmuelleri 8006; assay: Antibacterial activity, agar-dilution MIC, organism No. 11; details: Salmonella, 8006; Organism No. 11, bouillon-agar; read-out: Minimum Inhibitory Concentration
Summary of the method: as §1

[11] = system: Salmonella enteritidis G 14; assay: Antibacterial activity, agar-dilution MIC, organism No. 12; details: Salmonella enterica, ENTERITIDIS; Organism No. 12, bouillon-agar; read-out: Minimum Inhibitory Concentration
Summary of the method: as §1

[12] = system: Serratia marcescens IAM 1184; assay: Antibacterial activity, agar-dilution MIC, organism No. 13; details: Serratia marcescens, IAM1184; Organism No. 13, bouillon-agar; read-out: Minimum Inhibitory Concentration
Summary of the method: as §1

[13] = system: Bacillus subtilis ATCC 6633; assay: Antibacterial activity, agar-dilution MIC, organism No. 14; details: Bacillus subtilis, ATCC6633; Organism No. 14, bouillon-agar; read-out: Minimum Inhibitory Concentration
Summary of the method: as §1

[14] = system: Pseudomonas aeruginosa IFO 3445; assay: Antibacterial activity, agar-dilution MIC, organism No. 15; details: Pseudomonas aeruginosa, IFO3445; Organism No. 15, bouillon-agar; read-out: Minimum Inhibitory Concentration
Summary of the method: as §1

[15] = system: Pseudomonas aeruginosa NCTC 10490; assay: Antibacterial activity, agar-dilution MIC, organism No. 16; details: Pseudomonas aeruginosa, NCTC10490; Organism No. 16, bouillon-agar; read-out: Minimum Inhibitory Concentration
Summary of the method: as §1

[16] = system: Pseudomonas aeruginosa PAO 1; assay: Antibacterial activity, agar-dilution MIC, organism No. 17; details: Pseudomonas aeruginosa, PAO1; Organism No. 17, bouillon-agar; read-out: Minimum Inhibitory Concentration
Summary of the method: as §1

[17] = system: Proteus morganii IFO 3848; assay: Antibacterial activity, agar-dilution MIC, organism No. 18; details: Morganella morganii, IFO3848; Organism No. 18, bouillon-agar; read-out: Minimum Inhibitory Concentration
Summary of the method: as §1

[18] = system: Proteus mirabilis IFO 3849; assay: Antibacterial activity, agar-dilution MIC, organism No. 19; details: Proteus mirabilis, IFO3849; Organism No. 19, bouillon-agar; read-out: Minimum Inhibitory Concentration
Summary of the method: as §1

Proteus vulgaris OX-19 = assay: Antibacterial activity, agar-dilution MIC, organism No. 20; details: Proteus vulgaris, OX19; Organism No. 20, bouillon-agar; read-out: Minimum Inhibitory Concentration
Summary of the method: as §1

Proteus vulgaris HX-19 = assay: Antibacterial activity, agar-dilution MIC, organism No. 21; details: Proteus vulgaris, HX19; Organism No. 21, bouillon-agar; read-out: Minimum Inhibitory Concentration
Summary of the method: as §1

[19] = system: Proteus rettgeri IFO 3850; assay: Antibacterial activity, agar-dilution MIC, organism No. 22; details: Providencia rettgeri, IFO3850; Organism No. 22, bouillon-agar; read-out: Minimum Inhibitory Concentration
Summary of the method: as §1

[20] = system: Enterobacter aerogenes ATCC 13048; assay: Antibacterial activity, agar-dilution MIC, organism No. 23; details: Klebsiella aerogenes, ATCC13048; Organism No. 23, bouillon-agar; read-out: Minimum Inhibitory Concentration
Summary of the method: as §1

Enterobacter cloacae 963 = assay: Antibacterial activity, agar-dilution MIC, organism No. 24; details: Enterobacter cloacae, 963; Organism No. 24, bouillon-agar; read-out: Minimum Inhibitory Concentration
Summary of the method: as §1

[21] = system: Micrococcus luteus ATCC 9341; assay: Antibacterial activity, agar-dilution MIC, organism No. 25; details: Micrococcus luteus, ATCC9341; Organism No. 25, bouillon-agar; read-out: Minimum Inhibitory Concentration
Summary of the method: as §1

[22] = system: Mycoplasma pneumoniae IID817; assay: Antimycoplasmal activity, MIC by phenol red colour change, organism No. 28; details: Mycoplasma, IID817; Organism No. 28, PPLO broth + 1% glucose, 37° C.; read-out: Minimum Inhibitory Concentration (MIC)
Procedure: Mycoplasma pneumoniae IID817 was used as the test microorganism in a culture medium prepared by adding 1% of glucose to "PPLO broth (manufactured by Difco Co.) liquid culture medium" at 37° C. with phenol red as an indicator, thereby culturing the test microorganism.

[23] = system: Candida albicans IAM 4905; assay: Antifungal activity, agar-dilution MIC, organism No. 29; details: Candida albicans, IAM4905; Organism No. 29, bouillon-agar; read-out: Minimum Inhibitory Concentration
Summary of the method: as §1

[24] = system: Aspergillus niger IFO 6342; assay: Antifungal activity, agar-dilution MIC, organism No. 30; details: Aspergillus niger, IFO6342; Organism No. 30, bouillon-agar; read-out: Minimum Inhibitory Concentration
Summary of the method: as §1

[25] = system: Streptococcus pyogenes IFO 3340; assay: Antibacterial activity, agar-dilution MIC, organism No. 26; details: Streptococcus pyogenes, IFO3340; Organism No. 26, bouillon-agar; read-out: Minimum Inhibitory Concentration
Summary of the method: as §1

[26] = system: Streptococcus faecium IFO 3826; assay: Antibacterial activity, agar-dilution MIC, organism No. 27; details: Enterococcus faecium, IFO3826; Organism No. 27, bouillon-agar; read-out: Minimum Inhibitory Concentration
Summary of the method: as §1

Row | Structure (SMILES) | MIC [1] | MIC [2] | MIC [3] | MIC [5] | MIC [6] | MIC [7] | MIC [8] | MIC (Salmonella typhi 901) | MIC [9] | MIC [10] | MIC [11] | MIC [12] | MIC [13] | MIC [14] | MIC [15] | MIC [16] | MIC [17] | MIC [18] | MIC (Proteus vulgaris OX-19) | MIC (Proteus vulgaris HX-19) | further results
1 | [C-]#[N+]C12CC3(/C=C/C(=O)Nc4nccs4)OC3C1O2 (stereo not drawn) [compound 65] | < 0.1 µg/mL | 0.39 µg/mL (≈ 1.42 µM) | < 0.1 µg/mL | 12.5 µg/mL (≈ 45.4 µM) | 6.25 µg/mL (≈ 22.7 µM) | 1.56 µg/mL (≈ 5.67 µM) | 25 µg/mL (≈ 90.8 µM) | 3.13 µg/mL (≈ 11.4 µM) | 1.56 µg/mL (≈ 5.67 µM) | 1.56 µg/mL (≈ 5.67 µM) | 3.13 µg/mL (≈ 11.4 µM) | 12.5 µg/mL (≈ 45.4 µM) | 12.5 µg/mL (≈ 45.4 µM) | > 200 µg/mL | > 200 µg/mL | > 200 µg/mL | 1.56 µg/mL (≈ 5.67 µM) | > 200 µg/mL | 3.13 µg/mL (≈ 11.4 µM) | 0.2 µg/mL (≈ 0.727 µM) | MIC [4]: 12.5 µg/mL (≈ 45.4 µM); MIC [19]: 100 µg/mL (≈ 363 µM); MIC [20]: > 200 µg/mL; MIC (Enterobacter cloacae 963): > 200 µg/mL; MIC [21]: 0.1 µg/mL (≈ 0.363 µM); MIC [22]: < 0.2 µg/mL; MIC [23]: 12.5 µg/mL (≈ 45.4 µM); MIC [24]: 50 µg/mL (≈ 182 µM)
2 | [C-]#[N+]C12CC3(/C=C/C(=O)Nc4ccccc4N)OC3C1O2 (stereo not drawn) [compound 61] | 3.13 µg/mL (≈ 11 µM) | 12.5 µg/mL (≈ 44.1 µM) | 3.13 µg/mL (≈ 11 µM) | 12.5 µg/mL (≈ 44.1 µM) | 12.5 µg/mL (≈ 44.1 µM) | 1.56 µg/mL (≈ 5.51 µM) | 6.25 µg/mL (≈ 22.1 µM) | 3.13 µg/mL (≈ 11 µM) | 3.13 µg/mL (≈ 11 µM) | 3.13 µg/mL (≈ 11 µM) | 3.13 µg/mL (≈ 11 µM) | 25 µg/mL (≈ 88.2 µM) | 25 µg/mL (≈ 88.2 µM) | > 200 µg/mL | > 200 µg/mL | > 200 µg/mL | 3.13 µg/mL (≈ 11 µM) | 12.5 µg/mL (≈ 44.1 µM) | 3.13 µg/mL (≈ 11 µM) | 1.56 µg/mL (≈ 5.51 µM) | MIC [19]: 3.13 µg/mL (≈ 11 µM); MIC [20]: > 200 µg/mL; MIC (Enterobacter cloacae 963): 100 µg/mL (≈ 353 µM); MIC [21]: 0.78 µg/mL (≈ 2.75 µM); MIC [25]: 6.25 µg/mL (≈ 22.1 µM); MIC [26]: 100 µg/mL (≈ 353 µM); MIC [22]: < 0.2 µg/mL; MIC [23]: 25 µg/mL (≈ 88.2 µM); MIC [24]: 100 µg/mL (≈ 353 µM)
